Test results as given in patent publication US12390470B2, “1-methylxanthine-based bioactive composition and method of use thereof” (Ingenious Ingredients, LP, priority 2021, dated 2025).

What was measured:
[1] = tested on: Brain-derived neurotrophic factor (BDNF); assay: BDNF level in young and old rats; format: in vivo
Method: (§1) Twenty-four young (6-8 Week) and twenty-four old (14-16 Months) Swiss Albino Wistar rats were housed in an animal room at a constant temperature (22±3° C.) and humidity (30%-70%) under a 12:12 h light-dark cycle with standard laboratory diet (Purina 5L79, Rat and Mouse 18% protein; PMI Nutrition International, Brentwood, MO, USA). Distilled water was provided ad libitum. All animal experiments were reviewed and approved by the Institutional Animal Ethical Committee (IAEC) of Radiant Research Services Pvt. Ltd (Bangalore, India). All research was conducted in accordance with the guidelines of the committee for the purpose of control and supervision of experiments on animals.
After one week of acclimation, the animals were randomly divided by body weight and age into six groups (n=8 per group in each test) for oral treatment once a day, at approximately same time each day (±1 hour), for 10 consecutive days: (1) vehicle control or (2) 1-methylxanthine or (3) 1-methylxanthine plus paraxanthine. The dose administered to the rat was calculated using US Food and Drug Administration for human equivalence doses (HED), assuming a human weight of 60 kg. […] Food intake was monitored daily while water intake was ad libitum. […] Body weight was recorded weekly. […]

gastrocnemius = assay: Gastrocnemius muscle mass after 28 days supplementation; format: in vivo, mice
Method: as §1, with “8-week-old male” for “young (6-8 Week) and twenty-four old (14-16 Months)”, “mice” for “Wistar rats”
After one week of acclimation, the animals were randomly divided by body weight into three groups (n=8 per group in each test) for oral treatment once a day, at approximately same time each day (±1 hour), for 28 consecutive days: (1) vehicle control or (2) 1-methylxanthine or (3) 1-methylxanthine plus paraxanthine. The dose administered to the mice was calculated using US Food and Drug Administration for human equivalence doses (HED), assuming a human weight of 60 kg. […] Food intake was monitored daily while water intake was ad libitum. BW was recorded weekly. […]

healthy adult male = assay: Subject report during work out; format: in vivo, human; details: 200 mg prior to work out
Method: Subject was a healthy adult. Subject was administered 200 mg of 1-methylxanthine prior to work out.
During another trial subject was administered 100 mg of 1-methylxanthine together with 100 mg of paraxanthine, prior to work out.

Compound: Cn1c(=O)[nH]c2nc[nH]c2c1=O [1-methylxanthine, 1-Methyl-3H-purine-2,6-dione]
- BDNF levels ([1]; old rats): 793.81 ± 33.85 pg/mL
- BDNF levels ([1]; young rats): 869.04 ± 32.79 pg/mL
- gastrocnemius mass greater compared to control (gastrocnemius; 28 days): 1.9%
- gastrocnemius mass (gastrocnemius; 28 days after supplementation): 161.1 ± 4.3 mg
- subject-reported effect during work out (healthy adult male): increased focus, concentration, mood and performance
